ChEMBL document CHEMBL1201862, “PubChem BioAssay data set” (2004)
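Five compound concentrations were applied to cells in 96-well plates for 48 hours; endpoints were derived by simple linear interpolation of the resulting dose-response curve. Here, GI50 denotes the concentration required for 50% inhibition of growth.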 The source made the active and inactive calls. No stated cut-off is given here; in the data, active = GI50 up to about 1.1 µM and inactive = higher.

Legend:
Experiment in all cases: NCI anticancer screen, dose series, 48 h
[1] = system: MCF7
[2] = system: HCT-116
[3] = system: BT-549
[4] = system: NCI-H522
[5] = system: DU-145
[6] = system: ACHN
[7] = system: M14
[8] = system: NCI-H23
[9] = system: COLO 205
[10] = system: A549
[11] = system: SK-MEL-5
[12] = system: MDA-N
[13] = system: KM12
[14] = system: OVCAR-3
[15] = system: MOLT-4
[16] = system: RPMI-8226
[17] = system: CCRF-CEM
[18] = system: PC-3
[19] = system: SF-268
[20] = system: SF-295
[21] = system: UO-31
[22] = system: SF-539
[23] = system: OVCAR-5
[24] = system: UACC-62
[25] = system: SNB-75
[26] = system: IGROV-1
[27] = system: U-251
[28] = system: CAKI-1
[29] = system: TK-10
[30] = system: OVCAR-4
[31] = system: 786-0
[32] = system: SNB-19
[33] = system: SK-MEL-28
[34] = system: A498
[35] = system: SK-OV-3
[36] = system: HOP-92
[37] = system: HOP-62
[38] = system: HT-29
[39] = system: RXF 393
[40] = system: K562
[41] = system: HCC 2998
[42] = system: MDA-MB-435
[43] = system: MDA-MB-231
[44] = system: SW-620
[45] = system: EKVX
[46] = system: NCI-H226
[47] = system: SN12C
[48] = system: OVCAR-8
[49] = system: Hs-578T
[50] = system: SR
[51] = system: Malme-3M
[52] = system: LOX IMVI
[53] = system: HL-60
[54] = system: UACC-257
[55] = system: T47D
[56] = system: NCI-H460
[57] = system: HCT-15
[58] = system: NCI/ADR-RES

Q: `C=C(Cl)C(Br)(CBr)CCC(Br)C(C)(C)Br` (stereo not drawn) was tested. Which GI50 [1] did it give?
A: Its GI50 is 2.11 µM (inactive).

Q: And the GI50 [2]?
A: Its GI50 is 2.01 µM (inactive).

Q: What about the GI50 [3] of the same molecule?
A: The GI50 was > 10 µM (inactive).

Q: And the GI50 [4]?
A: The GI50 was > 10 µM (inactive).

Q: What about the GI50 [5] of the same molecule?
A: The GI50 was > 10 µM (inactive).

Q: And the GI50 [6]?
A: The GI50 was 9.16 µM (inactive).

Q: And the GI50 [7]?
A: Its GI50 is > 10 µM (inactive).

Q: What about the GI50 [8] of the same molecule?
A: The GI50 was > 10 µM (inactive).

Q: And the GI50 [9]?
A: The GI50 was 7.33 µM (inactive).

Q: And the GI50 [10]?
A: Its GI50 is 6.87 µM (inactive).

Q: And the GI50 [11]?
A: Its GI50 is > 10 µM (inactive).

Q: And the GI50 [12]?
A: Its GI50 is 7.57 µM (inactive).

Q: And the GI50 [13]?
A: Its GI50 is 4.37 µM (inactive).

Q: What about the GI50 [14] of the same molecule?
A: Its GI50 is > 10 µM (inactive).

Q: What about the GI50 [15] of the same molecule?
A: Its GI50 is 1.08 µM (active).

Q: What about the GI50 [16] of the same molecule?
A: Its GI50 is 1.83 µM (inactive).

Q: What about the GI50 [17] of the same molecule?
A: The GI50 was 3.89 µM (inactive).

Q: And the GI50 [18]?
A: Its GI50 is > 10 µM (inactive).

Q: And the GI50 [19]?
A: The GI50 was 2.51 µM (inactive).

Q: What about the GI50 [20] of the same molecule?
A: Its GI50 is > 10 µM (inactive).

Q: And the GI50 [21]?
A: Its GI50 is > 10 µM (inactive).

Q: And the GI50 [22]?
A: The GI50 was 2.54 µM (inactive).

Q: What about the GI50 [23] of the same molecule?
A: Its GI50 is > 10 µM (inactive).

Q: What about the GI50 [24] of the same molecule?
A: Its GI50 is 4.11 µM (inactive).

Q: And the GI50 [25]?
A: Its GI50 is 4.7 µM (inactive).

Q: And the GI50 [26]?
A: Its GI50 is 1.55 µM (inactive).

Q: And the GI50 [27]?
A: The GI50 was 5.11 µM (inactive).

Q: What about the GI50 [28] of the same molecule?
A: The GI50 was > 10 µM (inactive).

Q: And the GI50 [29]?
A: The GI50 was > 10 µM (inactive).

Q: And the GI50 [30]?
A: Its GI50 is 3.99 µM (inactive).

Q: And the GI50 [31]?
A: The GI50 was 1.57 µM (inactive).

Q: And the GI50 [32]?
A: The GI50 was 4.25 µM (inactive).

Q: And the GI50 [33]?
A: Its GI50 is > 10 µM (inactive).

Q: What about the GI50 [34] of the same molecule?
A: The GI50 was > 10 µM (inactive).

Q: What about the GI50 [35] of the same molecule?
A: Its GI50 is > 10 µM (inactive).

Q: And the GI50 [36]?
A: Its GI50 is 5.06 µM (inactive).

Q: And the GI50 [37]?
A: The GI50 was 6.67 µM (inactive).

Q: What about the GI50 [38] of the same molecule?
A: Its GI50 is 3.33 µM (inactive).

Q: And the GI50 [39]?
A: Its GI50 is 2.75 µM (inactive).

Q: What about the GI50 [40] of the same molecule?
A: The GI50 was 1.88 µM (inactive).

Q: And the GI50 [41]?
A: Its GI50 is > 10 µM (inactive).

Q: And the GI50 [42]?
A: Its GI50 is > 10 µM (inactive).

Q: What about the GI50 [43] of the same molecule?
A: The GI50 was 1.62 µM (inactive).

Q: And the GI50 [44]?
A: Its GI50 is 2.7 µM (inactive).

Q: What about the GI50 [45] of the same molecule?
A: The GI50 was > 10 µM (inactive).

Q: And the GI50 [46]?
A: Its GI50 is > 10 µM (inactive).

Q: And the GI50 [47]?
A: The GI50 was 7.73 µM (inactive).

Q: With `O=C1/C(=C/C=C/c2ccccc2)CCC1CNc1ccc(Br)cc1` (stereo not drawn) as the molecule, how does the GI50 [1] read?
A: Its GI50 is 21 µM (inactive).

Q: And the GI50 [48]?
A: The GI50 was > 100 µM (inactive).

Q: And the GI50 [2]?
A: Its GI50 is 37.9 µM (inactive).

Q: What about the GI50 [49] of the same molecule?
A: Its GI50 is > 100 µM (inactive).

Q: What about the GI50 [3] of the same molecule?
A: Its GI50 is > 100 µM (inactive).

Q: What about the GI50 [4] of the same molecule?
A: Its GI50 is 21.3 µM (inactive).

Q: What about the GI50 [5] of the same molecule?
A: Its GI50 is 40.2 µM (inactive).

Q: What about the GI50 [6] of the same molecule?
A: The GI50 was 6.53 µM (inactive).

Q: What about the GI50 [7] of the same molecule?
A: Its GI50 is 77.6 µM (inactive).

Q: What about the GI50 [8] of the same molecule?
A: Its GI50 is > 100 µM (inactive).

Q: What about the GI50 [9] of the same molecule?
A: Its GI50 is 20.8 µM (inactive).

Q: What about the GI50 [10] of the same molecule?
A: The GI50 was 53 µM (inactive).

Q: What about the GI50 [11] of the same molecule?
A: Its GI50 is 47.5 µM (inactive).

Q: And the GI50 [50]?
A: Its GI50 is 23.3 µM (inactive).

Q: And the GI50 [51]?
A: Its GI50 is 0.106 µM (active).

Q: And the GI50 [13]?
A: The GI50 was 15.2 µM (inactive).

Q: And the GI50 [14]?
A: Its GI50 is > 100 µM (inactive).

Q: What about the GI50 [15] of the same molecule?
A: Its GI50 is 24.3 µM (inactive).

Q: What about the GI50 [16] of the same molecule?
A: Its GI50 is 5.47 µM (inactive).

Q: And the GI50 [17]?
A: Its GI50 is 22.7 µM (inactive).

Q: And the GI50 [18]?
A: The GI50 was 79.3 µM (inactive).

Q: What about the GI50 [52] of the same molecule?
A: Its GI50 is > 100 µM (inactive).

Q: And the GI50 [19]?
A: Its GI50 is > 100 µM (inactive).

Q: What about the GI50 [20] of the same molecule?
A: The GI50 was > 100 µM (inactive).

Q: And the GI50 [21]?
A: The GI50 was 48.4 µM (inactive).

Q: What about the GI50 [22] of the same molecule?
A: Its GI50 is > 100 µM (inactive).

Q: What about the GI50 [23] of the same molecule?
A: The GI50 was > 100 µM (inactive).

Q: What about the GI50 [24] of the same molecule?
A: The GI50 was 6.92 µM (inactive).

Q: And the GI50 [26]?
A: The GI50 was 46.8 µM (inactive).

Q: And the GI50 [27]?
A: Its GI50 is > 100 µM (inactive).

Q: And the GI50 [28]?
A: Its GI50 is > 100 µM (inactive).

Q: What about the GI50 [29] of the same molecule?
A: The GI50 was 43.3 µM (inactive).

Q: What about the GI50 [30] of the same molecule?
A: Its GI50 is 57.7 µM (inactive).

Q: What about the GI50 [31] of the same molecule?
A: Its GI50 is 82.2 µM (inactive).

Q: And the GI50 [32]?
A: Its GI50 is > 100 µM (inactive).

Q: And the GI50 [33]?
A: The GI50 was > 100 µM (inactive).

Q: And the GI50 [53]?
A: Its GI50 is 17.1 µM (inactive).

Q: And the GI50 [34]?
A: The GI50 was 68.9 µM (inactive).

Q: What about the GI50 [35] of the same molecule?
A: The GI50 was 88.1 µM (inactive).

Q: And the GI50 [36]?
A: The GI50 was > 100 µM (inactive).

Q: And the GI50 [37]?
A: The GI50 was > 100 µM (inactive).

Q: What about the GI50 [54] of the same molecule?
A: The GI50 was > 100 µM (inactive).

Q: What about the GI50 [38] of the same molecule?
A: The GI50 was > 100 µM (inactive).

Q: What about the GI50 [39] of the same molecule?
A: The GI50 was > 100 µM (inactive).

Q: What about the GI50 [40] of the same molecule?
A: Its GI50 is 27.1 µM (inactive).

Q: And the GI50 [41]?
A: Its GI50 is 78 µM (inactive).

Q: And the GI50 [42]?
A: The GI50 was 44.5 µM (inactive).

Q: What about the GI50 [55] of the same molecule?
A: The GI50 was 34.1 µM (inactive).

Q: And the GI50 [56]?
A: The GI50 was 72.1 µM (inactive).

Q: What about the GI50 [43] of the same molecule?
A: Its GI50 is 23.1 µM (inactive).

Q: And the GI50 [44]?
A: Its GI50 is 88.7 µM (inactive).

Q: And the GI50 [45]?
A: The GI50 was > 100 µM (inactive).

Q: And the GI50 [46]?
A: The GI50 was > 100 µM (inactive).

Q: And the GI50 [57]?
A: The GI50 was 4.86 µM.

Q: What about the GI50 [47] of the same molecule?
A: Its GI50 is 4.51 µM (inactive).

Q: What about the GI50 [58] of the same molecule?
A: The GI50 was > 10 µM (inactive).
